Data set [1] concerns Staphylococcus aureus. Nature of the data set: Ratio of MBC to MIC for methicillin/ciprofloxacin/gentamicin/clindamycin-resistant Staphylococcus aureus USA200 NRS383 clinical isolate. It counts as functional.
Data set [2] relates to Staphylococcus aureus. The experiment in a line: Potency index, ratio of vancomycin MIC to test compound MIC for methicillin-resistant Staphylococcus aureus 2658 RCMB. The data set is classed as functional.
For data set [3], the system named is Staphylococcus aureus. Nature of the data set: Antibacterial activity against methicillin-resistant Staphylococcus aureus 2658 RCMB after 18 to 20 hrs by broth microdilution method. The data set is classed as functional. A general note: Broth dilution looks for growth in wells or tubes with falling amounts of substance.
In data set [4] the test system is Staphylococcus aureus. Nature of the data set: Antibacterial activity against methicillin-resistant Staphylococcus aureus USA400 NRS123 clinical isolate infected in mouse J774 cells assessed as reduction of bacterial load at 16 ug/ml after 8 hrs. It counts as functional, cell-based.
The subject of data set [5] is Staphylococcus aureus. The experiment in a line: Ratio of MBC to MIC for methicillin/erythromycin/tetracycline-resistant Staphylococcus aureus USA300 NRS384 clinical isolate. The data set is classed as functional.
The test system of data set [6] is Staphylococcus aureus. The experiment in a line: Potentiation of vancomycin-mediated antibacterial activity against vancomycin-resistant Staphylococcus aureus VRSA10 clinical isolate assessed as reduction in vancomycin MIC at 0.5 times MIC preincubated for 30 mins followed by vancomycin addition measured after 20 to 22 hrs relative to control. The data set is classed as functional.

For data set [7], the system named is Staphylococcus aureus. Nature of the data set: Antibacterial activity against vancomycin-resistant Staphylococcus aureus VRSA4 clinical isolate after 18 to 20 hrs by broth microdilution method. The data set is classed as functional.
For data set [8], the system named is HaCaT. The experiment in a line: Cytotoxicity against human HaCaT cells assessed as decrease in cell viability at 64 ug/ml after 2 hrs by MTS assay. It counts as cell-based. (In general: Tetrazolium assays rely on reduction of a dye to a coloured formazan, in cell work by metabolically active cells.)
Data set [9] concerns Staphylococcus aureus. Nature of the data set: Bactericidal activity against methicillin/ciprofloxacin/clindamycin-resistant Staphylococcus aureus USA100 NRS382 clinical isolate after 24 hrs. It counts as functional.
The subject of data set [10] is Staphylococcus aureus. Nature of the data set: Bactericidal activity against methicillin-resistant Staphylococcus aureus USA400 NRS123 clinical isolate assessed as time required to reduce 3 log10CFU of bacterial load at 4 times MIC by time kill assay. It counts as functional.
Data set [11] in a line: Half life in human liver microsomes after 10 to 60 mins in absence of NADPH by LC/MS/MS analysis. It counts as ADME, microsome. On the technique in general: Liver microsomes are vesicles of endoplasmic reticulum, rich in cytochrome P450 enzymes.
For data set [12], the system named is Staphylococcus aureus. The experiment in a line: Antibacterial activity against vancomycin-resistant Staphylococcus aureus VRSA10 clinical isolate after 18 to 20 hrs by broth microdilution method. The data set is classed as functional.
In data set [13] the test system is Staphylococcus aureus. Nature of the data set: Antibacterial activity against methicillin-resistant Staphylococcus aureus USA400 NRS123 clinical isolate after 18 to 20 hrs by broth microdilution method. It counts as functional.
For data set [14], the system named is Staphylococcus aureus. The experiment in a line: Antibacterial activity against methicillin-resistant Staphylococcus aureus USA400 NRS123 clinical isolate infected in mouse J774 cells assessed as reduction of bacterial load at 16 ug/ml after 24 hrs relative to control. It counts as functional. Particulars: USA400 NRS123, J774, 24 h.
Data set [15] deals with HaCaT. Nature of the data set: Cytotoxicity against human HaCaT cells assessed as decrease in cell viability up to 32 ug/ml after 2 hrs by MTS assay. It counts as cell-based.
Data set [16] relates to Staphylococcus aureus. Nature of the data set: Antibacterial activity against methicillin/erythromycin/tetracycline-resistant Staphylococcus aureus USA300 NRS384 clinical isolate after 18 to 20 hrs by broth microdilution method. The data set is classed as functional.
For data set [17], the system named is Staphylococcus aureus. Nature of the data set: Bactericidal activity against mupirocin/rifampicin-resistant Staphylococcus aureus RN4220 NRS107 clinical isolate after 24 hrs. The data set is classed as functional. Particulars: RN4220 NRS107, 24 h.
Data set [18] in a line: Half life in human liver microsomes after 10 to 60 mins in presence of NADPH by LC/MS/MS analysis. The data set is classed as ADME, microsome.
The subject of data set [19] is Staphylococcus aureus. The experiment in a line: Bactericidal activity against vancomycin-resistant Staphylococcus aureus VRSA4 clinical isolate after 24 hrs. It counts as functional. Particulars: VRSA4, 24 h.
The subject of data set [20] is Staphylococcus aureus. The experiment in a line: Bactericidal activity against vancomycin-resistant Staphylococcus aureus VRSA10 clinical isolate after 24 hrs. It counts as functional. The following applies: VRSA10, 24 h.
In data set [21] the test system is J774. The experiment in a line: Cytotoxicity against mouse J774 cells assessed as decrease in cell viability up to 16 ug/ml after 2 hrs by MTS assay. The data set is classed as cell-based. The following applies: j774, 2 h.
The subject of data set [22] is Staphylococcus aureus. The experiment in a line: Antibacterial activity against methicillin-resistant Staphylococcus aureus USA400 NRS123 clinical isolate infected in mouse J774 cells assessed as reduction of bacterial load at 16 ug/ml after 12 hrs relative to control. The data set is classed as functional. Particulars: USA400 NRS123, J774, 12 h.
The subject of data set [23] is Staphylococcus aureus. The experiment in a line: Bactericidal activity against methicillin-resistant Staphylococcus aureus USA400 NRS123 clinical isolate after 24 hrs. It counts as functional.
Data set [24] is described as follows: Intrinsic clearance in human liver microsomes after 10 to 60 mins in presence of NADPH by LC/MS/MS analysis. The following applies: read-out: CLH. It counts as ADME, microsome.
For data set [25], the system named is Staphylococcus aureus. The experiment in a line: Bactericidal activity against methicillin/ciprofloxacin/gentamicin/clindamycin-resistant Staphylococcus aureus USA200 NRS383 clinical isolate after 24 hrs. It counts as functional.
Data set [26] has as its system Staphylococcus aureus. The experiment in a line: Antibacterial activity against mupirocin/rifampicin-resistant Staphylococcus aureus RN4220 NRS107 clinical isolate after 18 to 20 hrs by broth microdilution method. The data set is classed as functional.
The nature of data set [27]: Intrinsic clearance in human liver microsomes after 10 to 60 mins in absence of NADPH by LC/MS/MS analysis. It counts as ADME, microsome. The following applies: read-out: CLH.
In data set [28] the test system is Staphylococcus aureus. The experiment in a line: Antibacterial activity against methicillin/ciprofloxacin/gentamicin/clindamycin-resistant Staphylococcus aureus USA200 NRS383 clinical isolate after 18 to 20 hrs by broth microdilution method. The data set is classed as functional.
Data set [29] relates to Staphylococcus aureus. The experiment in a line: Ratio of MBC to MIC for methicillin-resistant Staphylococcus aureus USA400 NRS123 clinical isolate. The data set is classed as functional.
For data set [30], the system named is Staphylococcus aureus. Nature of the data set: Bactericidal activity against methicillin/erythromycin/tetracycline-resistant Staphylococcus aureus USA300 NRS384 clinical isolate after 24 hrs. It counts as functional.
The subject of data set [31] is Staphylococcus aureus. The experiment in a line: Antibacterial activity against methicillin/ciprofloxacin/clindamycin-resistant Staphylococcus aureus USA100 NRS382 clinical isolate after 18 to 20 hrs by broth microdilution method. It counts as functional.
Data set [32] relates to Staphylococcus aureus. The experiment in a line: Potentiation of vancomycin-mediated antibacterial activity against vancomycin-resistant Staphylococcus aureus VRSA4 clinical isolate assessed as reduction in vancomycin MIC at 0.5 times MIC preincubated for 30 mins followed by vancomycin addition measured after 20 to 22 hrs relative to control. The data set is classed as functional.

Data set [33] relates to Staphylococcus aureus. Nature of the data set: Antibacterial activity against methicillin-resistant Staphylococcus aureus USA300 infected in Balb/c mouse assessed as reduction in bacterial load in wound at 2% administered topically bid for 3 days starting 48 hrs post infection relative to control. The data set is classed as functional.
Data set [34] in a line: Drug metabolism in Sprague-Dawley rat urine assessed as […] at 50 mg/kg administered via oral gavage after 24 hrs by LC/MS/MS analysis. The following applies: in vivo. It counts as ADME, organism-based.
Data set [35] in a line: Drug metabolism in Sprague-Dawley rat serum assessed as […] at 50 mg/kg administered via oral gavage after 6 hrs by LC/MS/MS analysis. The data set is classed as ADME, organism-based. The following applies: in vivo.
A short description of data set [36]: Drug metabolism in Sprague-Dawley rat serum assessed as CYP450-mediated oxidation at 50 mg/kg administered via oral gavage after 6 hrs by LC/MS/MS analysis. It counts as ADME, organism-based. Particulars: in vivo.
Data set [37] is described as follows: Drug metabolism in Sprague-Dawley rat urine assessed as CYP450-mediated oxidation at 50 mg/kg administered via oral gavage after 24 hrs by LC/MS/MS analysis. It counts as ADME, organism-based. Particulars: in vivo.

SMILES strings stand for the structures. Converted amounts (≈) assume the structure as drawn. The source made the active and inactive calls. The rule behind the calls is not given here. Where only a bound is given, the exact number is not on record here.

For orientation: MIC means the lowest concentration that inhibits growth of the organism. Read a low MIC as a more susceptible organism. In general, MBC refers to the lowest tested concentration that kills the bacteria rather than only halting them. One may read the half-life as how long it takes for the measured level to halve. One may read the inhibition as the change of the read-out against control, counted positive when it falls. Turning to `C/C(=N\NC(=N)N)c1sc(-c2ccc(OC3CCCCCC3)cc2)nc1C`, the Ratio was above 3 in [1], 1 in data set [2], above 3 in data set [5] and above 3 in [29]. Moreover, the MIC was 0.98 mg/L (≈ 2.54 µM) in data set [3]; 4 mg/L (≈ 10.4 µM) in data set [7]; 4 mg/L (≈ 10.4 µM) in data set [12]; 4 mg/L (≈ 10.4 µM) in data set [13]; 4 mg/L (≈ 10.4 µM) in [16]; 4 mg/L (≈ 10.4 µM) in data set [26]. Further, the MIC in data set [28] and in data set [31] was 2 mg/L (≈ 5.19 µM) each time. Besides, the result in [4] was inactive. For the same compound, the “fold change (FC)” value is 256 in data set [6] and 16 in [32]. Moreover, the Activity result is “Toxic” in [8]; “Dose-dependent effect” in data set [9]; “Non-Toxic” in data set [15]; “Non-Toxic” in data set [21]; “Dose-dependent effect” in data set [23]; “Dose-dependent effect” in data set [25]. In [30], the Activity result was “Dose-dependent effect”. In addition, the MBC in data set [9] (USA100 NRS382, 24 h) was 4 mg/L (≈ 10.4 µM); in data set [17], 8 mg/L (≈ 20.8 µM); in data set [19], 4 mg/L (≈ 10.4 µM); in data set [20] it was 4 mg/L (≈ 10.4 µM); in data set [23] (USA400 NRS123, 24 h), 16 mg/L (≈ 41.5 µM); in [25] (USA200 NRS383, 24 h), 8 mg/L (≈ 20.8 µM). The minimal bactericidal concentration (MBC) in [30] (USA300 NRS384, 24 h) was found to be 16 mg/L (≈ 41.5 µM). In addition, in data set [10], the Time is 48 h. Further, the half-life in data set [11] and in [18] was above 4 h each time. Further, the inhibition at 16 µg/mL amounted to 70% in data set [14] and 48% in data set [22]. The microsomal CLint in data set [24] and in data set [27] was below 9.6 µL/min/mg throughout.

As for `CCCCc1ccc(-c2nc(C)c(/C(C)=N/NC(=N)N)s2)cc1`, the Activity in [33] is on record as 2.36 deltalog10CFU. Further, the Drug metabolism result in [34], in [35], in data set [36] and in data set [37] was “Metabolite_Detected” each time. The compound further displayed an MIC in [3] of 3.75 mg/L (≈ 11.4 µM). The half-life in data set [11] was above 1 h; in data set [18] it was 0.48 h. In [24], the microsomal CLint is 80.3 µL/min/mg.

These data come from ChEMBL document CHEMBL4002577, “Phenylthiazole antibiotics: A metabolism-guided approach to overcome short duration of action” (Eur J Med Chem, 2017).
